Experimental data: US5578608A, “Symmetrical diaryl and diheteroanyl cis epoxy alkanes antiviral compounds” (Eli Lilly and Company, priority 1995, dated 1996)
Where two headings read alike, the source gives them in different places.

Molecular target: T1, HIV-1 protease (Human immunodeficiency virus type 1 group M subtype B, UniProt P04585)
T1 construct: made in house; host or cells: E. coli K12 L507/pHP10D (NRRL B-18560)
Assay: biochemical
Experimental: A culture of E. coli K12 L507/pHP10D was grown to mid-log phase at 32° C. in LB media containing 12.5 μg/ml tetracycline. The cultivation temperature was quickly elevated to 40° C. to induce gene expression, and the cells were allowed to grow for 2.5 hours at this temperature before the culture was quickly chilled on ice. The cells were centrifuged and the cell pellet was resuspended in 20 mL 50 mmol MES buffer (pH 6.0) containing 1 mmol EDTA, 1 mmol DTT, 1 mmol PMSF and 10% glycerol ("Buffer A"). Cells were lysed by sonication using a Fischer Model 300 Dismembrator and a microtip probe. Following centrifugation at 27,000 x g, the supernatant was diluted to a total volume of 60 mL with Buffer A and loaded onto a 2.0×19 cm QAE-Sepharose column (1 mL/min, 4° C.), that had been equilibrated in Buffer A. The column was washed isocratically for 180 min and then eluted with a gradient eluent of 0-1.0M NaCl in Buffer A over 120 min. Enzymatic activity was measured by HPLC using the synthetic peptide SQNYPIV as described in Margolin et al., Biochem. Biophys. Res. Commun., […], 554-560 (1990); the production of the p1 peptide (SQNY) was measured.
N^a -Biotin-[…]N^e -FITC)-OH SEQ ID NO: 1
The following buffers and solutions are used in the Fluorescence HIV-1 Protease Inhibitor Assay:
To each well of a round bottom, 96-well plate is added 20 μL of the Enzyme Solution followed by 10 μL of the compound to be evaluated in a 20% aqueous dimethylsulfoxide solution. Purified HIV-1 protease was obtained as described above. The resulting solution is incubated for one hour at room temperature and then 20 μL of a solution containing the substrate, N^a -Biotin-[…]N^e-FITC)-OH, in MES-ALB buffer ([…]) is added to each well. The solutions are then incubated for 16 hours at room temperature and then each well is diluted with 150 μL of MES-ALB buffer.
To each well of a second round bottom, 96-well Pandex plate is added 25 uL of the Avidin Coated Beads Solution. Then, to each well is added 25 μL of the diluted incubation solutions, prepared above. The solutions are mixed thoroughly and the plates are loaded into a Pandex® machine, washed, evacuated and read. Sample detection was performed by excitation at 485 nm, reading the resulting epifluorescence at 535 nm.

[1] = read-out: Fluorescence Assay average IC50 (marked *) (converted)
[2] = read-out: Fluorescence Assay IC50 (converted)

Structure (SMILES)	IC50 [1] [nM]	IC50 [2] [nM]	other results
CC(C)[C@H](NC(=O)OCc1ccccc1)C(=O)N[C@@H](Cc1ccccc1)[C@@H]1O[C@@H]1[C@H](Cc1ccccc1)NC(=O)[C@@H](NC(=O)OCc1ccccc1)C(C)C [Example 1, 1,6-Diphenyl-2(S),5(S)-di[N-[2(S)-N(benzyloxycarbonyl)amino-3-methyl-butanoyl]amino]-3,4-cis-epoxyhexane]	212		
CC[C@H](NC(=O)OCc1ccccc1)C(=O)N[C@@H](Cc1ccccc1)[C@@H]1O[C@@H]1[C@H](Cc1ccccc1)NC(=O)[C@H](CC)NC(=O)OCc1ccccc1 [Example 2, 1,6-Diphenyl-2(S),5(S)-di[N-[2(S)-N(benzyloxycarbonyl)aminobutanoyl]amino]-3,4-cis-epoxyhexane]		14.4	
N#CC[C@H](NC(=O)c1ccc2ccccc2n1)C(=O)N[C@@H](Cc1ccccc1)[C@@H]1O[C@@H]1[C@H](Cc1ccccc1)NC(=O)[C@H](CC#N)NC(=O)c1ccc2ccccc2n1 [Example 3, 1,6-Diphenyl-2(S),5(S)-di[N-[2(S)-N(quinolin-2-ylcarbonyl)amino-3-cyanopropanoyl]amino]-3,4-cis-epoxyhexane]		5350	
N#CC[C@H](NC(=O)OCc1ccccc1)C(=O)N[C@@H](Cc1ccccc1)[C@@H]1O[C@@H]1[C@H](Cc1ccccc1)NC(=O)[C@H](CC#N)NC(=O)OCc1ccccc1 [Example 6, 1,6-Diphenyl-2(S),5(S)-di[N-[2(S)-N(benzyloxycarbonyl)amino-3-cyanopropanoyl]amino]-3,4-cis-epoxyhexane]		880	
O=C(N[C@@H](Cn1cccn1)C(=O)N[C@@H](Cc1ccccc1)[C@@H]1O[C@@H]1[C@H](Cc1ccccc1)NC(=O)[C@H](Cn1cccn1)NC(=O)OCc1ccccc1)OCc1ccccc1 [Example 7, 1,6-Diphenyl-2(S),5(S)-di[N-[2(S)-N(benzyloxycarbonyl)amino-3-pyrazol-1-ylpropanoyl]amino]3,4-cis-epoxyhexane]		8260	
CC(C)[C@H](NC(=O)OCc1ccccn1)C(=O)N[C@@H](Cc1ccccc1)[C@@H]1O[C@@H]1[C@H](Cc1ccccc1)NC(=O)[C@@H](NC(=O)OCc1ccccn1)C(C)C [Example 8, 1,6-Diphenyl-2(S),5(S)-di[N-[2(S)-N(pyrid-2-ylmethoxycarbonyl)amino-3-methylbutanoyl]amino]-3,4-cis-epoxyhexane]	349		
O=C(N[C@@H](Cc1c[nH]cn1)C(=O)N[C@@H](Cc1ccccc1)[C@@H]1O[C@@H]1[C@H](Cc1ccccc1)NC(=O)[C@H](Cc1c[nH]cn1)NC(=O)OCc1ccccc1)OCc1ccccc1 [Example 9, 1,6-Diphenyl-2(S),5(S)-di[N-[2(S)-N(benzyloxycarbonyl)amino-3-imidazol-4-yl-propanoyl]amino]-3,4-cis-epoxyhexane]		84.2	
CSC[C@@H](NC(=O)OCc1ccccc1)C(=O)N[C@@H](Cc1ccccc1)[C@@H]1O[C@@H]1[C@H](Cc1ccccc1)NC(=O)[C@@H](CSC)NC(=O)OCc1ccccc1 [Example 11, 1,6-Diphenyl-2(S),5(S)-di[N-[2(S)-N(benzyloxycarbonyl)amino-3-methylthiopropanoyl]amino]-3,4-cis-epoxyhexane]			IC50 (* average IC50, 16 h incubation at room temperature, MES-ALB buffer pH 5.5, normalized to a positive control, read-out: Fluorescence Assay average IC50 (marked *) (converted)): 248 nM
NC(=O)CC[C@H](NC(=O)OCc1ccccc1)C(=O)N[C@@H](Cc1ccccc1)[C@@H]1O[C@@H]1[C@H](Cc1ccccc1)NC(=O)[C@H](CCC(N)=O)NC(=O)OCc1ccccc1 [Example 12, 1,6-Diphenyl-2(S),5(S)-di[N-[2(S)-N(benzyloxycarbonyl)amino-4-carbamoylbutanoyl]amino]-3,4-cis-epoxyhexane]		1730	
CC(C)C[C@H](NC(=O)OCc1ccccn1)C(=O)N[C@@H](Cc1ccccc1)[C@@H]1O[C@@H]1[C@H](Cc1ccccc1)NC(=O)[C@H](CC(C)C)NC(=O)OCc1ccccn1 [Example 13, 1,6-Diphenyl-2(S),5(S)-di[N-[2(S)-N(pyrid-2-ylmethoxycarbonyl)amino-4-methylpentanoyl]amino]-3,4-cis-epoxyhexane]		2880	
CC[C@H](C)[C@H](NC(=O)OCc1ccccc1)C(=O)N[C@@H](Cc1ccccc1)[C@@H]1O[C@@H]1[C@H](Cc1ccccc1)NC(=O)[C@@H](NC(=O)OCc1ccccc1)[C@@H](C)CC [Example 14]			IC50 (16 h incubation at room temperature, MES-ALB buffer pH 5.5, normalized to a positive control, read-out: Fluorescence Assay IC50 (converted)): 236 nM
CC(C)[C@H](NC(=O)N(C)CCc1ccccn1)C(=O)N[C@@H](Cc1ccccc1)[C@@H]1O[C@@H]1[C@H](Cc1ccccc1)NC(=O)[C@@H](NC(=O)N(C)CCc1ccccn1)C(C)C [Example 16, 1,6-Diphenyl-2(S),5(S)-di[N-[2(S)-N-[[N(methyl)-N(pyrid-2-ylethyl)amino]carbonyl]amino-3-methylbutanoyl]amino]-3,4-cis-epoxyhexane]			inhibition at 1 µg/mL (at 1000 ng/ml, read-out: Fluorescence Assay, given as ICxx (1000): xx is the percent inhibition): 32%
CC(C)[C@H](NC(=O)OCc1ccc2cccc(F)c2n1)C(=O)N[C@@H](Cc1ccccc1)[C@@H]1O[C@@H]1[C@H](Cc1ccccc1)NC(=O)[C@@H](NC(=O)OCc1ccc2cccc(F)c2n1)C(C)C [Example 17, 1,6-Diphenyl-2(S),5(S)-di[N-[2(S)-N[(8-fluoroquinolin-2-ylmethoxy)carbonyl]amino-3-methylbutanoyl]amino]-3,4-cis-epoxyhexane]	23.1		

Further lines, with some results ahead:

IC50 [1] [nM]	IC50 [2] [nM]	Structure (SMILES)	other results
59.9		CC(C)[C@H](NC(=O)OCc1ccc2ccccc2n1)C(=O)N[C@@H](Cc1ccccc1)[C@@H]1O[C@@H]1[C@H](Cc1ccccc1)NC(=O)[C@@H](NC(=O)OCc1ccc2ccccc2n1)C(C)C [Example 4, 1,6-Diphenyl-2(S),5(S)-di[N-[2(S)-N[(quinolin-2-ylmethoxy)carbonyl]amino-3-methylbutanoyl]amino]-3,4-cis-epoxyhexane]	
	2.19	CC[C@H](NC(=O)OCc1ccc2ccccc2n1)C(=O)N[C@@H](Cc1ccccc1)[C@@H]1O[C@@H]1[C@H](Cc1ccccc1)NC(=O)[C@H](CC)NC(=O)OCc1ccc2ccccc2n1 [Example 10, 1,6-Diphenyl-2(S),5(S)-di[N-[2(S)-N[(quinolin-2-ylmethoxy)carbonyl]aminobutanoyl]amino]-3,4-cis-epoxyhexane]	
	27.3	CC[C@H](C)[C@H](NC(=O)OCc1ccc2ccccc2n1)C(=O)N[C@@H](Cc1ccccc1)[C@@H]1O[C@@H]1[C@H](Cc1ccccc1)NC(=O)[C@@H](NC(=O)OCc1ccc2ccccc2n1)[C@@H](C)CC [Example 15, 1,6-Diphenyl-2(S),5(S)-di[N-[2(S)-N[(quinolin-2-ylmethoxy)carbonyl]amino-3(S)-methylpentanoyl]amino]-3,4-cis-epoxyhexane]	
8.36		CC[C@H](NC(=O)N(C)Cc1ccc2ccccc2n1)C(=O)N[C@@H](Cc1ccccc1)[C@@H]1O[C@@H]1[C@H](Cc1ccccc1)NC(=O)[C@H](CC)NC(=O)N(C)Cc1ccc2ccccc2n1 [Example 18, 1,6-Diphenyl-2(S),5(S)-di[N-[2(S)-N-[[N(methyl)-N(quinolin-2-ylmethyl)amino]carbonyl]aminobutanoyl]amino]-3,4-cis-epoxyhexane]	
166		CC[C@H](C)[C@H](NC(=O)N(C)Cc1ccc2ccccc2n1)C(=O)N[C@@H](Cc1ccccc1)[C@@H]1O[C@@H]1[C@H](Cc1ccccc1)NC(=O)[C@@H](NC(=O)N(C)Cc1ccc2ccccc2n1)[C@@H](C)CC [Example 19, 1,6-Diphenyl-2(S),5(S)-di[N-[2(S)-N[[N(methyl)-N(quinolin-2-ylmethyl)amino]carbonyl]amino-3(S)methylpentanoyl]amino]-3,4-cis-epoxyhexane]	
